Legend:
[1] = tested on: HCC-78 (SLC34A2-ROS1) cells; assay: cells; details: Homo sapiens, HCC78, 72 h, read-out: HCC-78 IC50
Description: (§1) Assay methods: 1. Preparation of cell plates: Ba/F3, and Ba/F3 Bcr-Abl T315I cells were separately seeded in 96-well plates, and 8 ng/ml IL-3 was added to Ba/F3 cells. The cell plates were placed in a carbon dioxide incubator for culture overnight. 2. […] 3. Treatment of cells with compounds: The compounds were transferred to cell plates at a starting concentration of 10 μM. The cell plates were incubated in a carbon dioxide incubator for 3 days. 4. Detection: CellTiter-Glo reagent was added to the cell plates and incubated for 30 minutes at room temperature to stabilize the luminescence signal. Readings were performed using a PerkinElmer Envision multi-label analyzer.

[2] = tested on: KM12 (TPM3-TRKA) cells; assay: cells; details: Homo sapiens, KM12, 72 h, read-out: KM12 IC50
Description: as §1

[3] = Liver microsomal metabolism assay, human; type: in vitro ADME; details: pH 7.4, human liver microsomes 0.5 mg/mL, compound 1 μM, 37° C.; for microsomal CLint at 1 μM: read-out: Human liver microsome assay CLint; for half-life at 1 μM: read-out: Human liver microsome assay t1/2
Description: (§2) (3) Liver Microsomal Metabolism Assay
(§3) […]; Coenzyme (NADPH/NADH): 1 mM, Sigma Life Science; Magnesium chloride: 5 mM, 100 mM phosphate buffer (pH 7.4).
(§4) Preparation of stock solutions: Powder of the compounds were accurately weighed and dissolved in DMSO to 5 mM.
(§5) Preparation of phosphate buffer (100 mM, pH7.4): A pre-prepared 0.5M potassium dihydrogen phosphate (150 mL) was mixed with 0.5M dibasic potassium phosphate (700 mL). The pH of the mixture was adjusted to 7.4 with 0.5M dibasic potassium phosphate solution. The mixture was diluted 5-fold with ultrapure water before use, and magnesium chloride was added to obtain a phosphate buffer (100 mM) containing 100 mM potassium phosphate, 3.3 mM magnesium chloride, pH 7.4.
(§6) A NADPH regeneration system solution (containing 6.5 mM NADP, 16.5 mM G-6-P, 3 U/mL G-6-P D, 3.3 mM magnesium chloride) was prepared and placed on wet ice prior to use.
(§7) Incubation of the samples: The stock solutions of the respective compounds were respectively diluted to 0.25 mM with an aqueous solution containing 70% acetonitrile, and used as a working solution, ready for use. 398 μL of the dilution of human liver microsomes or rat liver microsomes were added to 96-well incubation plates (N=2), respectively, and 2 μL of 0.25 mM working solution was added and mixed.
(§8) Metabolic stability assay: 300 μL of pre-chilled stop solution was added to each well of 96-well deep well plates and placed on ice as stop plates. The 96-well incubation plates and NADPH regeneration system were placed in a 37° C. water bath box, shaken at 100 rpm and pre-incubated for 5 min. 80 μL of incubation solution was taken out from each well of the incubation plates and added to the stop plates, mixed, and replenished with 20 μL of NADPH regeneration system solution as a 0-min sample. 80 μL of NADPH regeneration system solution was added to each well of the incubation plates to start the reaction and start counting. […] Separately, 100 μL of the reaction solutions was taken at 10, 30, and 90 min reaction, respectively, added to stop plates, and vortexed for 3 minutes to terminate the reaction. The stop plates were centrifuged at 5000×g at 4° C. for 10 min. 100 μL of the supernatant was added to a 96-well plate to which 100 μL of distilled water was previously added, mixed, and analyzed by LC-MS/MS.
(§9) Data analysis: The peak areas of the corresponding compounds and internal standard were detected by LC-MS/MS system, and the ratio of the peak area of the compounds to the internal standard was calculated.
(§10) The metabolic stability of the compounds in human and rat liver microsomes was evaluated by simultaneously testing and comparing the compounds disclosed herein and the non-deuterated compound. […]

[4] = tested on: Ba/F3 EML-ALK cells; assay: Cytotoxicity assay (cell viability, CellTiter-Glo), Ba/F3 EML-ALK; type: cell-based; details: Mus musculus, BaF3, 72 h, read-out: Ba/F3 EML-ALK IC50
[5] = Pharmacokinetic assay in rats; type: in vivo, SD rat; details: male SD rats, i.g., 3 mg/kg; for AUC(0-t) / Cmax / MRT / Tmax: rat, plasma, po
Description: (4) Pharmacokinetic Assay in Rats Assay objective: after administration of test compounds to rats, the pharmacokinetic behavior of the compounds disclosed herein was investigated. Assay Animals: Species and strains: SD rat grade: SPF grade Gender and quantity: male, 6 Weight range: 180 to 220 g (the actual weight range was from 187 to 197 g) Assay Procedure: Before blood samples were collected, 20 μL of 2 M sodium fluoride solution (esterase inhibitor) was previously added to an EDTA-K2 anticoagulant tube, dried in an 80° C. oven, and placed in a 4° C. refrigerator. Rats (male, weighing 187 to 197 g) were randomly divided into 2 groups, and were fasted overnight in the afternoon before the experiment but were allowed to drink water freely. Food was given 4 hours after the administration. […] About 100-200 μL of blood was taken from the orbital vein of rats at 15 min, 30 min, 1, 2, 3, 5, 8 and 10 h after administration, placed in a 0.5 mL Eppendorf tube with EDTA-K2 anticoagulant and mixed immediately. After anticoagulation, the tube was gently inverted 5-6 times as quickly as possible. After the blood was taken, it was placed in an ice box, and then within 30 min, the blood sample was centrifuged for 10 min at 4000 rpm and 4° C. to separate the plasma. Immediately after collection of all plasma, it was stored at −20° C. The concentration of the drug in plasma at each time point was determined after sample collection at all time points. Based on the data of the average concentration of the drug in plasma versus time after administration obtained as described above, pharmacokinetics-related parameters of male SD rats after the i.g. administration of test compounds (3 mg/kg) were calculated using the Winnonin software according to non-compartment statistical moment theory.

[6] = Liver microsomal metabolism assay, rat; type: in vitro ADME; details: SD, pH 7.4, rat liver microsomes 0.5 mg/mL, compound 1 μM, 37° C.; for microsomal CLint at 1 μM: read-out: Rat liver microsome assay CLint; for half-life at 1 μM: read-out: Rat liver microsome assay t1/2
Description: as §2, §3, §4, §5, §6, §7, §8, §9, §10

[7] = tested on: Ba/F3 EML-ALK^L1196M cells; assay: Cytotoxicity assay (cell viability, CellTiter-Glo), Ba/F3 EML-ALK L1196M; type: cell-based; details: Mus musculus, BaF3, 72 h, read-out: Ba/F3 EML-ALK^L1196M IC50

IC50 [1] | IC50 [2] | microsomal CLint at 1 μM [3] | half-life at 1 μM [3] | Cl_pred [5] | F [5] | AUC(0-t) [5] | Cmax [5] | MRT [5] | Tmax [5] | microsomal CLint at 1 μM [6] | half-life at 1 μM [6] | SMILES | IC50 [4] | IC50 [7]
10 to 50 nM | 1 to 10 nM | 34.7 µL/min/mg | 0.665 h | 155 mL/min/kg | 7.43% | 1070 ng·h/mL | 145 ng/mL | 5.31 h | 3.33 h | 21.3 µL/min/mg | 1.09 h | [2H]C([2H])([2H])N1CCN(c2ccc(C(=O)Nc3n[nH]c4ccc(Cc5cc(F)cc(F)c5)cc34)c(NC3CCOCC3)c2)CC1 [Compound T-1, N-(5-(3,5-difluorobenzyl)-1H-indazol-3-yl)-4-(4-(methyl-d3)piperazin-1-yl)-2-((tetrahydro-2H-pyran-4-yl)amino)benzamide] | 50 to 150 nM | 
10 to 50 nM | 1 to 10 nM | 48.1 µL/min/mg | 0.48 h | 114 mL/min/kg | 9.23% | 1460 ng·h/mL | 236 ng/mL | 4.24 h | 2.17 h | 32.9 µL/min/mg | 0.703 h | CN1CCN(c2ccc(C(=O)Nc3n[nH]c4ccc(Cc5cc(F)cc(F)c5)cc34)c(NC3CCOCC3)c2)CC1 [Entrectinib, N-(5-(3,5-difluorobenzyl)-1H-indazol-3-yl)-4-(4-methylpiperazin-1-yl)-2-((tetrahydro-2H-pyran-4-yl)amino)benzamide, reference compound] | 50 to 150 nM | > 200 nM
